Patent US5100876A, “16-decarboxy-16-hydroxy derivatives of amphotericin B” (Beecham Group p.l.c., priority 1988, dated 1992)
≈ marks a conversion by molar mass, not a printed value.

Experiments:
Candida albicans 73/079 = assay: Minimum Inhibitory Concentration (MIC) by broth dilution in microtitre tray; format: cell-based; conditions: inoculum 10^5 cells/ml, 37° C.
Description: (§1) The Minimum Inhibitory Concentration (MIC) was determined by diluting the test compound in a broth medium in a microtitre tray. The organisms, which had been grown previously in a broth medium, were diluted and added to the wells to provide a final inoculum of approximately 10^5 colony-formingunits per well. The trays were incubated at 37° C. and the turbidity of each well noted at intervals. The MIC was taken as the lowest concentration (in μg/ml) which prevented significant growth. |Minimum Inhibitory Concentration (μg/ml) |(determined after 2 and 3 days incubation) | *Inoculum 10^5 cells/ml | YNB: Yeast Nitrogen Base Broth | SAB: Sabouraud's Dextrose Broth.

[1] = system: Candida parapsilosis 937 A; assay: as above; format: cell-based; conditions: inoculum 10^5 cells/ml, 37° C.
Description: as §1

[2] = 48 h, day 2, YNB (Yeast Nitrogen Base Broth)
[3] = 72 h, day 3, YNB (Yeast Nitrogen Base Broth)

## C[C@@H]1[C@H](O)[C@@H](C)/C=C/C=C/C=C/C=C/C=C/C=C/C=C/[C@H](O[C@@H]2O[C@H](C)[C@@H](O)[C@H](N)[C@@H]2O)C[C@@H]2O[C@](O)(C[C@@H](O)C[C@@H](O)[C@H](O)CC[C@@H](O)C[C@@H](O)CC(=O)O[C@H]1C)C[C@H](O)[C@H]2CO [Example 4, 16-Decarboxy-16-hydroxymethylamohotericin B]
Candida albicans 73/079; [2]
  MIC: 1 µg/mL (≈ 1.1 µM)
Candida albicans 73/079; [3]
  MIC: 2 µg/mL (≈ 2.2 µM)
Candida albicans 73/079; Candida albicans, 73/079, 48 h, day 2, SAB (Sabouraud's Dextrose Broth)
  MIC: 1 µg/mL (≈ 1.1 µM)
Candida albicans 73/079; Candida albicans, 73/079, 72 h, day 3, SAB (Sabouraud's Dextrose Broth)
  MIC: 1 µg/mL (≈ 1.1 µM)
[1]; 937A, 48 h, day 2, SAB (Sabouraud's Dextrose Broth)
  MIC: 1 µg/mL (≈ 1.1 µM)
[1]; 937A, 72 h, day 3, SAB (Sabouraud's Dextrose Broth)
  MIC: 2 µg/mL (≈ 2.2 µM)
[1]; [2]
  MIC: 8 µg/mL (≈ 8.79 µM)
[1]; [3]
  MIC: 8 µg/mL (≈ 8.79 µM)
